The text below walks through data of patent US8349880B2, “Bicyclic compounds for the reduction of beta-amyloid production” (Bristol-Myers Squibb Company, priority 2009, dated 2013).

Read-outs that look alike come from different tables or passages of the source. Some results are limits rather than exact numbers.

This test relates to Aβ1-42 production. Briefly: Cellular assay for inhibition of Aβ1-42 production (H4 APP751 SWE clone 8.20). The test is classed as cell-based. The note with it: H4 APP751 SWE clone 8.20 cells, 19 h incubation. On the procedure:
Cellular assays for inhibition of Aβ1-40 and Aβ1-42 production
H4 cells stably transfected with APP751 containing the Swedish mutation (H4 APP751 SWE clone 8.20, developed at BMS) were maintained in log phase through twice weekly passage at a 1:20 split. For IC50 determinations, 30 μl cells (1.5×10^4 cells/well) in DMEM media containing 0.0125% BSA (Sigma A8412) were plated directly into 384-well compound plates (Costar 3709) containing 0.1 μl serially diluted compound in DMSO. Following incubation for 19 h in 5% CO2 at 37° C., plates were briefly centrifuged (1000 rpm, 5 min). A 10 μl aliquot from each well was transferred to a second assay plate (Costar 3709) for Aβ40 measurements. Antibody cocktails were freshly prepared by dilution into 40 mM Tris-HCl (pH 7.4) with 0.2% BSA and added to assay plates. For Aβ42 measurements, antibodies specific for the Aβ42 neoepitope (565, developed at BMS; conjugated to the Wallac reagent (Perkin Elmer)) and the N-terminal sequence of Aβ peptide (26D6, developed at SIBIA; conjugated to APC (Perkin Elmer)) were mixed and 20 μl of the mixture was added to each well of the incubated cell plate yielding a final concentration of 0.8 ng/well 565 and 75 ng/well 26D6. For the Aβ40 measurements, antibodies specific for the Aβ40 neoepitope (TSD, developed at BMS; conjugated to the Wallac reagent (Perkin Elmer)) and 26D6 as described above were mixed and 20 μl of the mixture was added to the 10 μl aliquots which had been removed previously from the cell plate yielding a final concentration of 1.6 ng/well TSD and 17.5 ng/well 26D6. Assay plates containing antibodies were sealed with aluminum foil and incubated overnight at 4° C. Signal was determined using a Viewlux counter (Perkin Elmer) and IC50 values determined using curve fitting in CurveMaster (Excel Fit based).

[1] abbreviates: 19 h, read-out: Activity Rating (based on Aβ42 cellular IC50 values).
The mark [2] stands for this setting: 19 h, read-out: Activity Rating (Aβ42 cellular IC50, given as a number).

On to `COc1cc(Nc2nc3n(n2)CCCC[C@@H]3c2ccc(F)c(F)c2)ccc1-n1cnc(Cl)c1` (single isomer, unassigned) [Example 24], for which the IC50 under setting [1] is under 10 nM.

Take `Cc1nc(C)n(-c2ccc(Nc3nc4n(n3)CCCCC4c3ccc(OCC(F)F)cc3)cc2F)n1` (stereo not shown) [Example 109, 9-(4-(2,2-difluoroethoxy)phenyl)-N-(4-(3,5-dimethyl-1H-1,2,4-triazol-1-yl)-3-fluorophenyl)-6,7,8,9-tetrahydro-5H-[1,2,4]triazolo[1,5-a]azepin-2-amine 2,2,2-trifluoroacetate]: the IC50 under setting [2] turned out to be 240 nM.

In the case of `COc1cc(Nc2nc3c(s2)CC(N(C)C)CC3c2ccc(F)cc2)ccc1-n1cnc(Cl)c1` (stereo not shown) [Example 78, N2-(4-(4-chloro-1H-imidazol-1-yl)-3-methoxyphenyl)-4-(4-fluorophenyl)-N6,N6-dimethyl-4,5,6,7-tetrahydrobenzo[d]thiazole-2,6-diamine], the IC50 under setting [1] lay in the range of 100 to 1000 nM.

With `Cc1ncn(-c2ccc(Nc3nc4n(n3)CCCCC4c3ccc(F)cc3)cc2F)n1` (stereo not shown) [Example 25, N-(3-fluoro-4-(3-methyl-1H-1,2,4-triazol-1-yl)phenyl)-9-(4-fluorophenyl)-6,7,8,9-tetrahydro-5H-[1,2,4]triazolo[1,5-a]azepin-2-amine], the 50% inhibitory concentration (IC50) under setting [1] was in the range of 10 to 100 nM.

Regarding `COc1cc(Nc2nc3n(n2)CCCC[C@@H]3c2ccc(OC(F)(F)F)cc2)cc(F)c1-n1cnc(C)n1` (single isomer, unassigned) [Example 169], the IC50 under setting [1] was 100 to 1000 nM.

On to `COc1cc(Nc2nc3c(s2)CCCC3c2ccccc2)ccc1-n1cnc(C)c1` (stereo not shown) [Example 71, N-(3-methoxy-4-(4-methyl-1H-imidazol-1-yl)phenyl)-4-phenyl-4,5,6,7-tetrahydrobenzo[d]thiazol-2-amine 2,2,2-trifluoroacetate], for which the IC50 under setting [1] was 10 to 100 nM.

For the compound `COc1cc(Nc2nc3n(n2)CCCCC3c2ccc(OC(F)(F)F)cc2)ccc1-n1cnc(Cl)c1` (stereo not shown) [Example 31, N-(4-(4-chloro-1H-imidazol-1-yl)-3-methoxyphenyl)-9-(4-(trifluoromethoxy)phenyl)-6,7,8,9-tetrahydro-5H-[1,2,4]triazolo[1,5-a]azepin-2-amine 2,2,2-trifluoroacetate], the concentration for half-maximal inhibition (IC50) under setting [1] is under 10 nM.

For `Cc1ncn(-c2ccc(Nc3nc4n(n3)CCCC[C@H]4c3ccc(OCC(F)(F)F)cc3)cc2F)n1` (single isomer, unassigned) [Example 114], the IC50 under setting [1] is 10 to 100 nM.

As for `COc1cc(Nc2nc3n(n2)CCC2(CC3c3ccc(F)cc3)OCCO2)ccc1-n1cnc(Cl)c1` (stereo not shown) [Example 144, N-(4-(4-chloro-1H-imidazol-1-yl)-3-methoxyphenyl)-9-(4-fluorophenyl)-5,6,8,9-tetrahydrospiro[[1,2,4]triazolo[1,5-a]azepine-7,2′-[1,3]dioxolan]-2-amine 2,2,2-trifluoroacetate], the IC50 under setting [1] is under 10 nM.

For the compound `Cc1ncnn1-c1ccc(Nc2nc3n(n2)CCCCC3c2ccc(OC(F)(F)F)c(F)c2)cc1F` (stereo not shown) [Example 160, N-(3-fluoro-4-(5-methyl-1H-1,2,4-triazol-1-yl)phenyl)-9-(3-fluoro-4-(trifluoromethoxy)phenyl)-6,7,8,9-tetrahydro-5H-[1,2,4]triazolo[1,5-a]azepin-2-amine], under setting [1], the IC50 is under 10 nM.

In the case of `COc1cc(Nc2nc3n(n2)CCCCC3c2cc(F)c(F)c(F)c2)ccc1-n1cnc(Cl)c1` (stereo not shown) [Example 50, N-(4-(4-chloro-1H-imidazol-1-yl)-3-methoxyphenyl)-9-(3,4,5-trifluorophenyl)-6,7,8,9-tetrahydro-5H-[1,2,4]triazolo[1,5-a]azepin-2-amine], the IC50 under setting [1] is under 10 nM.

With “S)—N-(4-(4-chloro-1H-imidazol-1-yl)-3-methoxyphenyl)-9-(3,4-difluorophenyl)-6,7,8,9-tetrahydro-5H-[1,2,4]triazolo[1,5-a]azepin-2-amine [Example 23]”, the IC50 (read-out: Activity Rating (based on Aβ42 cellular IC50 values)) was under 10 nM.

With `C=C1CCn2nc(Nc3ccc(-n4cnc(Cl)c4)c(OC)c3)nc2[C@H](c2ccc(F)cc2)C1` (single isomer, unassigned) [Example 134], the half-maximal inhibitory concentration (IC50) under setting [2] was 3 nM.

Regarding `COc1cc(Nc2nc3n(n2)CCCC[C@H]3c2cccc(Cl)c2)ccc1-n1cnc(Cl)c1` (single isomer, unassigned) [Example 54], the IC50 under setting [1] is under 10 nM.

Take `COc1cc(Nc2nc3c(s2)CCC[C@@H]3c2ccccc2)ccc1-n1cnc(Cl)c1` (single isomer, unassigned) [Example 70]: the IC50 under setting [1] is 100 to 1000 nM.

Regarding `COc1cc(Nc2nc3n(n2)CC[C@](C)(O)C[C@@H]3c2ccc(OC(F)(F)F)cc2)ccc1-n1cnc(Cl)c1` (relative stereo) [Example 152, rel-(7R,9R)-2-(4-(4-chloro-1H-imidazol-1-yl)-3-methoxyphenylamino)-7-methyl-9-(4-(trifluoromethoxy)phenyl)-6,7,8,9-tetrahydro-5H-[1,2,4]triazolo[1,5-a]azepin-7-ol 2,2,2-trifluoroacetate], the IC50 under setting [1] was under 10 nM.

In the case of `COc1cc(Nc2nc3n(n2)CCCC[C@H]3c2ccc(F)cc2)c(F)cc1-n1cnc(C)n1` [Example 29, (S)—N-(2-fluoro-5-methoxy-4-(3-methyl-1H-1,2,4-triazol-1-yl)phenyl)-9-(4-fluorophenyl)-6,7,8,9-tetrahydro-5H-[1,2,4]triazolo[1,5-a]azepin-2-amine], the half-inhibitory concentration (IC50) under setting [1] fell in the range of 10 to 100 nM.

As for `Cc1ncnn1-c1ccc(Nc2nc3n(n2)CCCC[C@@H]3c2ccc(OC(F)(F)F)cc2)cc1F` (single isomer, unassigned) [Example 101], the IC50 under setting [1] lay within 10 to 100 nM.

Turning to `COc1cc(Nc2nc3n(n2)CCCC3c2ccc(F)cc2)ccc1-n1cnc(Cl)c1` (stereo not shown) [Example 10, N-(4-(4-chloro-1H-imidazol-1-yl)-3-methoxyphenyl)-8-(4-fluorophenyl)-5,6,7,8-tetrahydro-[1,2,4]triazolo[1,5-a]pyridin-2-amine 2,2,2-trifluoroacetate], the IC50 under setting [1] was in the range of 10 to 100 nM.

With `COc1cc(Nc2nc3n(n2)CCCCC3c2ccc(OC(F)(F)F)c(F)c2)ccc1-n1cnc(C)n1` (stereo not shown) [Example 128, 9-(3-fluoro-4-(trifluoromethoxy)phenyl)-N-(3-methoxy-4-(3-methyl-1H-1,2,4-triazol-1-yl)phenyl)-6,7,8,9-tetrahydro-5H-[1,2,4]triazolo[1,5-a]azepin-2-amine 2,2,2-trifluoroacetate], the IC50 under setting [1] lay in the range of 10 to 100 nM.

For `Cc1ncnn1-c1ccc(Nc2nc3n(n2)CCCC[C@@H]3c2ccc(OCC(F)F)cc2)cc1F` (single isomer, unassigned) [Example 121], the IC50 under setting [1] lay in the range of 100 to 1000 nM.

`COc1cc(Nc2nc3c(s2)CCC[C@H]3c2ccccc2)ccc1-n1cnc(Cl)c1` (single isomer, unassigned) [Example 69]: the IC50 under setting [1] was 10 to 100 nM.

In the case of `COc1cc(Nc2nc3n(n2)CCCCC3(O)c2ccc(F)cc2)ccc1-n1cnc(Cl)c1` (stereo not shown) [Example 92, 2-(4-(4-chloro-1H-imidazol-1-yl)-3-methoxyphenylamino)-9-(4-fluorophenyl)-6,7,8,9-tetrahydro-5H-[1,2,4]triazolo[1,5-a]azepin-9-ol], the IC50 under setting [2] was found to be 11 nM.

On to `COc1cc(Nc2nc3n(n2)CCCCC3c2ccc(OC(F)(F)F)cc2)cc(F)c1-n1cnc(C)n1` (stereo not shown) [Example 167, N-(3-fluoro-5-methoxy-4-(3-methyl-1H-1,2,4-triazol-1-yl)phenyl)-9-(4-(trifluoromethoxy)phenyl)-6,7,8,9-tetrahydro-5H-[1,2,4]triazolo[1,5-a]azepin-2-amine], for which the IC50 under setting [2] turned out to be 44 nM.

As to `COc1cc(Nc2nc3n(n2)CCCCC3c2ccc(F)cc2)ccc1-n1cnc(C(F)F)c1` (stereo not shown) [Example 43, N-(4-(4-(difluoromethyl)-1H-imidazol-1-yl)-3-methoxyphenyl)-9-(4-fluorophenyl)-6,7,8,9-tetrahydro-5H-[1,2,4]triazolo[1,5-a]azepin-2-amine 2,2,2-trifluoroacetate], the IC50 under setting [1] lay in the range of 10 to 100 nM.

As for `COc1cc(Nc2nc3n(n2)CCCCC3c2cccc(F)c2)ccc1-n1cnc(Cl)c1` (stereo not shown) [Example 44, N-(4-(4-chloro-1H-imidazol-1-yl)-3-methoxyphenyl)-9-(3-fluorophenyl)-6,7,8,9-tetrahydro-5H-[1,2,4]triazolo[1,5-a]azepin-2-amine], the IC50 under setting [1] was under 10 nM.

Turning to `COc1cc(Nc2nc3n(n2)CCCCC3c2ccc(-n3ccnc3)cc2)ccc1-n1cnc(Cl)c1` (stereo not shown) [Example 173, 9-(4-(1H-imidazol-1-yl)phenyl)-N-(4-(4-chloro-1H-imidazol-1-yl)-3-methoxyphenyl)-6,7,8,9-tetrahydro-5H-[1,2,4]triazolo[1,5-a]azepin-2-amine 2,2,2-trifluoroacetate], under setting [1], the IC50 was in the range of 100 to 1000 nM.

Take `COc1cc(Nc2nc3c(s2)CCCC3c2ccccc2)ccc1-n1cnc(Cl)c1` (stereo not shown) [Example 68, N-(4-(4-chloro-1H-imidazol-1-yl)-3-methoxyphenyl)-4-phenyl-4,5,6,7-tetrahydrobenzo[d]thiazol-2-amine]: under setting [1], the IC50 lay in the range of 10 to 100 nM.

Usually IC50 stands for the concentration that gives 50% inhibition.
